These results are taken from PubChem BioAssay AID248 (DTP/NCI, 2004).

This experiment deals with L1210 leukemia ip in BDF1 mice, survival T/C. Kind of experiment: NCI In Vivo Anticancer Drug Screen. Data for tumor model L1210 Leukemia (intraperitoneal) in B6D2F1 (BDF1) mice. Conditions: endpoint: mean survival time, higher = longer survival. The gist of the method:
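Transplanted-tumor mice were given test agent; controls received vehicle only. Survival readings from the two groups were divided (treated over control).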

Where [1] appears, read: dose: 100.0 mg/kg/injection, schedule: Q01DX009 (ip), vehicle: saline with Tween-80.
Setting [2] is: dose: 200.0 mg/kg/injection, schedule: Q01DX009 (ip), vehicle: saline with Tween-80.
Where [3] appears, read: dose: 12.5 mg/kg/injection, schedule: Q04DX002 (ip), vehicle: saline.
[4] abbreviates: dose: 75.0 mg/kg/injection, schedule: Q01DX001 (ip), vehicle: saline.
The mark [5] stands for this setting: dose: 150.0 mg/kg/injection, schedule: Q01DX001 (ip), vehicle: saline.
[6] abbreviates: dose: 100.0 mg/kg/injection, schedule: Q01DX001 (ip), vehicle: saline.
Where [7] appears, read: dose: 200.0 mg/kg/injection, schedule: Q01DX001 (ip), vehicle: saline.
Setting [8] is: dose: 100.0 mg/kg/injection, schedule: Q01DX009 (ip), vehicle: Klucel (hydroxypropylcellulose) (HPC).
Where [9] appears, read: dose: 100.0 mg/kg/injection, schedule: Q04DX003 (ip), vehicle: Klucel (hydroxypropylcellulose) (HPC).
Where [10] appears, read: dose: 200.0 mg/kg/injection, schedule: Q01DX009 (ip), vehicle: Klucel (hydroxypropylcellulose) (HPC).
[11] abbreviates: dose: 200.0 mg/kg/injection, schedule: Q04DX003 (ip), vehicle: Klucel (hydroxypropylcellulose) (HPC).
Where [12] appears, read: dose: 400.0 mg/kg/injection, schedule: Q01DX009 (ip), vehicle: Klucel (hydroxypropylcellulose) (HPC).
The mark [13] stands for this setting: dose: 400.0 mg/kg/injection, schedule: Q04DX003 (ip), vehicle: Klucel (hydroxypropylcellulose) (HPC).
Setting [14] is: dose: 50.0 mg/kg/injection, schedule: Q01DX009 (ip), vehicle: Klucel (hydroxypropylcellulose) (HPC).

Each structure is given as a SMILES string. Several values for one entry are separate records, joined by “and”; a condition that tells them apart may be missing. Identical values can stand only once. Inconclusive results and toxic doses are left out.

`Cc1ccc(S(=O)(=O)N(CCC(=O)O)c2ccccc2)cc1`: the T/C was 90 % of control under setting [1] and 97 % of control under setting [2].
For `OCC1C2CCC(O2)C1CO` (stereo not drawn), the T/C runs as follows: (dose: 0.75 mg/kg/injection, schedule: Q04DX002 (ip), vehicle: saline) 96 % of control; (dose: 1.5 mg/kg/injection, schedule: Q04DX002 (ip), vehicle: saline) 93 % of control and 110 % of control; (dose: 3.0 mg/kg/injection, schedule: Q04DX002 (ip), vehicle: saline) 96 % of control; (dose: 6.0 mg/kg/injection, schedule: Q04DX002 (ip), vehicle: saline) 101 % of control and 115 % of control; under setting [3], 101 % of control; (dose: 25.0 mg/kg/injection, schedule: Q04DX002 (ip), vehicle: saline) 108 % of control. For the same compound, the T/C is, setting by setting: (dose: 50.0 mg/kg/injection, schedule: Q04DX002 (ip), vehicle: saline) 111 % of control; (dose: 100.0 mg/kg/injection, schedule: Q04DX002 (ip), vehicle: saline) 105 % of control.
In the case of `CN(C)CCC(O)C(c1ccccc1)c1ccccc1` (stereo not drawn), the T/C is 100 % of control under setting [4] and 102 % of control under setting [5].
Regarding `O=S(CS(=O)c1ccccc1)c1ccccc1` (stereo not drawn), the T/C is 100 % of control under setting [6]; 94 % of control under setting [7]; 100 % of control (dose: 400.0 mg/kg/injection, schedule: Q01DX001 (ip), vehicle: saline).
`Cc1ccc(-n2c(=S)[nH]c3ccccc3c2=O)cc1C`: the T/C under setting [8] was 90 % of control; the T/C under setting [9] was 96 % of control; the T/C under setting [10] was 90 % of control; the T/C under setting [11] was 93 % of control; the T/C under setting [12] is 92 % of control; the T/C under setting [13] is 93 % of control.
Turning to `C[N+]1(C)OCC2CCCC(c3ccccc3)C21` (stereo not drawn), the T/C was 104 % of control (dose: 12.5 mg/kg/injection, schedule: Q01DX001 (ip), vehicle: saline); 102 % of control (dose: 25.0 mg/kg/injection, schedule: Q01DX001 (ip), vehicle: saline); 98 % of control (dose: 50.0 mg/kg/injection, schedule: Q01DX001 (ip), vehicle: saline).
For `CCCNP(=S)(NCCC)NCCC`, the T/C runs as follows: (dose: 50.0 mg/kg/injection, schedule: Q01DX001 (ip), vehicle: other) 96 % of control; (dose: 100.0 mg/kg/injection, schedule: Q01DX001 (ip), vehicle: other) 100 % of control; (dose: 200.0 mg/kg/injection, schedule: Q01DX001 (ip), vehicle: other) 105 % of control; (dose: 400.0 mg/kg/injection, schedule: Q01DX001 (ip), vehicle: other) 100 % of control.
On to `NC1(C(=O)O)CCC(N)(C(=O)O)CC1` (stereo not drawn), for which the T/C by setting is: under setting [4], 110 % of control; under setting [5], 100 % of control.
`CC[CH2][Pb]([CH2]CC)([CH2]CC)[N]1C(=O)c2ccccc2C1=O`: the T/C (dose: 3.12 mg/kg/injection, schedule: Q01DX009 (ip), vehicle: saline) was 98 % of control; the T/C (dose: 3.12 mg/kg/injection, schedule: Q04DX002 (ip), vehicle: saline) was 92 % of control; the T/C (dose: 6.25 mg/kg/injection, schedule: Q01DX009 (ip), vehicle: saline) is 101 % of control; the T/C (dose: 6.25 mg/kg/injection, schedule: Q04DX002 (ip), vehicle: saline) was 111 % of control; the T/C under setting [3] is 94 % of control and 111 % of control.
For `O=c1[nH]c2ccccc2c(=O)n1CCCN1CCN(c2cccc(Cl)c2)CC1`, the T/C under setting [8] is 108 % of control; the T/C (dose: 100.0 mg/kg/injection, schedule: Q04DX002 (ip), vehicle: Klucel (hydroxypropylcellulose) (HPC)) is 111 % of control; the T/C under setting [10] was 108 % of control; the T/C (dose: 200.0 mg/kg/injection, schedule: Q04DX002 (ip), vehicle: Klucel (hydroxypropylcellulose) (HPC)) was 114 % of control; the T/C under setting [12] was 108 % of control; the T/C (dose: 400.0 mg/kg/injection, schedule: Q04DX002 (ip), vehicle: Klucel (hydroxypropylcellulose) (HPC)) is 104 % of control.
Regarding `CC(=O)Oc1ccc(N(CCCl)CCCl)cc1OC(C)=O`, the T/C (dose: 150.0 mg/kg/injection, schedule: Q01DX001 (ip), vehicle: other) was 98 % of control.
Regarding `O=C(COc1ccccc1Cl)Nc1cccnc1`, the T/C is, setting by setting: (dose: 100.0 mg/kg/injection, schedule: Q01DX001 (ip), vehicle: Klucel (hydroxypropylcellulose) (HPC)) 113 % of control; (dose: 200.0 mg/kg/injection, schedule: Q01DX001 (ip), vehicle: Klucel (hydroxypropylcellulose) (HPC)) 103 % of control; (dose: 400.0 mg/kg/injection, schedule: Q01DX001 (ip), vehicle: Klucel (hydroxypropylcellulose) (HPC)) 103 % of control.
For the compound `C(=C\c1ccccc1)/Nc1ccccc1`, the T/C reads like this: under setting [9], 97 % of control; under setting [11], 96 % of control; under setting [13], 92 % of control.
As for `CCCCCC#CC(C)OC(=O)Nc1cccc2ccccc12` (stereo not drawn), the T/C runs as follows: (dose: 100.0 mg/kg/injection, schedule: Q01DX001 (ip), vehicle: saline with Tween-80) 96 % of control; (dose: 200.0 mg/kg/injection, schedule: Q01DX001 (ip), vehicle: saline with Tween-80) 98 % of control; (dose: 400.0 mg/kg/injection, schedule: Q01DX001 (ip), vehicle: saline with Tween-80) 86 % of control.
Turning to `Cc1ccc(N)cc1`, the T/C is 114 % of control under setting [6] and 102 % of control under setting [7].
`O=[N+]([O-])/C=C\C(Cl)(Cl)Cl`: the T/C was 96 % of control (dose: 6.25 mg/kg/injection, schedule: Q01DX009 (ip), vehicle: saline with Tween-80) and 87 % of control (dose: 12.5 mg/kg/injection, schedule: Q01DX009 (ip), vehicle: saline with Tween-80).
Regarding `COc1ccc(OC)c(NC(=S)N/N=C/c2cccc3ccccc23)c1`, the T/C is, setting by setting: under setting [1], 100 % of control; under setting [2], 95 % of control; (dose: 400.0 mg/kg/injection, schedule: Q01DX009 (ip), vehicle: saline with Tween-80) 100 % of control.
In the case of `O=C(Nc1ccc2c(c1)Cc1cccc(NC(=O)C(Cl)Cl)c1-2)C(Cl)Cl`, the T/C was 95 % of control under setting [14] and 89 % of control under setting [10].
`CCN(C)N=Nc1cccnc1`: the T/C is 101 % of control (dose: 10.0 mg/kg/injection, schedule: Q01DX009 (ip), vehicle: saline); 107 % of control (dose: 15.0 mg/kg/injection, schedule: Q01DX009 (ip), vehicle: saline); 111 % of control (dose: 22.0 mg/kg/injection, schedule: Q01DX009 (ip), vehicle: Klucel (hydroxypropylcellulose) (HPC)); 110 % of control (dose: 22.0 mg/kg/injection, schedule: Q01DX009 (ip), vehicle: saline with Tween-80); 112 % of control (dose: 22.0 mg/kg/injection, schedule: Q01DX009 (ip), vehicle: saline); 108 % of control (dose: 33.0 mg/kg/injection, schedule: Q01DX009 (ip), vehicle: Klucel (hydroxypropylcellulose) (HPC)). For the same compound, the T/C is, setting by setting: (dose: 33.0 mg/kg/injection, schedule: Q01DX009 (ip), vehicle: saline with Tween-80) 122 % of control; (dose: 33.0 mg/kg/injection, schedule: Q01DX009 (ip), vehicle: saline) 152 % of control; under setting [14], 108 % of control; (dose: 50.0 mg/kg/injection, schedule: Q01DX009 (ip), vehicle: saline) 170 % of control; (dose: 75.0 mg/kg/injection, schedule: Q01DX009 (ip), vehicle: Klucel (hydroxypropylcellulose) (HPC)) 150 % of control; (dose: 75.0 mg/kg/injection, schedule: Q01DX009 (ip), vehicle: saline with Tween-80) 122 % of control.
In the case of `O=[N+]([O-])c1cc(CN2CCCCC2)c(O)c2cccnc12`, the T/C was 101 % of control under setting [4]; 106 % of control under setting [5]; 101 % of control (dose: 300.0 mg/kg/injection, schedule: Q01DX001 (ip), vehicle: saline).
As to `CNC(=O)O[C@H]1CC[C@@]2(C)C(=CC[C@H]3[C@@H]4CC[C@H]([C@H](C)CCCC(C)C)[C@@]4(C)CC[C@@H]32)C1`, the T/C (dose: 100.0 mg/kg/injection, schedule: Q01DX001 (sc), vehicle: steriod suspending solution) was 87 % of control; the T/C (dose: 200.0 mg/kg/injection, schedule: Q01DX001 (sc), vehicle: steriod suspending solution) is 97 % of control; the T/C (dose: 400.0 mg/kg/injection, schedule: Q01DX001 (sc), vehicle: steriod suspending solution) was 92 % of control.
